From US20220289698A1, “INHIBITORS OF HUMAN ATGL” (Karl-Franzens-Universität Graz, priority 2019, published 2022)
Like-named read-outs stand apart in the source and are kept apart here.

What was measured:
human ATGL = molecular target: T1, human ATGL (Homo sapiens, UniProt Q96AD5); assay: TG hydrolase activity, Expi cell lysates expressing human ATGL + CGI-58, radiolabelled triolein; assay type: biochemical
T1 construct: made in house; host or cells: Expi cells (lysate, not purified)
T1 sequence (Q96AD5 1-504): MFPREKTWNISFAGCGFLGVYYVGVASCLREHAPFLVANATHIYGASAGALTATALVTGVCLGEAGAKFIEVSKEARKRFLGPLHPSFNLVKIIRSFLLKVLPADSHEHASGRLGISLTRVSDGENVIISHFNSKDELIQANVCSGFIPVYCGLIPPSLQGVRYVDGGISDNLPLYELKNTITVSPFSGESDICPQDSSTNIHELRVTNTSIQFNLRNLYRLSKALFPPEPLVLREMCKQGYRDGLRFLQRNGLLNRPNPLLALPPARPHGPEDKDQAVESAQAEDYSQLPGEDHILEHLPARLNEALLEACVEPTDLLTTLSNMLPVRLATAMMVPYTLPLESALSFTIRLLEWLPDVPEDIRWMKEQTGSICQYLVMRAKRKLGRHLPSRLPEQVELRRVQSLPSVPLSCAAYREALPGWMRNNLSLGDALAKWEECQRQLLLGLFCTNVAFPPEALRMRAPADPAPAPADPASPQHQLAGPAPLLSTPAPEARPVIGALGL
Outline: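 Lysates of Expi cells expressing ATGL, supplemented with purified CGI-58 and inhibitor in DMSO, incubated 1 h at 37 °C with emulsified radiolabelled triolein (330 μM) in potassium phosphate pH 7.0 with 5% FA-free BSA. Released FA counted by liquid scintillation after phase extraction; IC50 versus DMSO control, duplicates.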

hPNPLA9 = molecular target: T2, hPNPLA9 (Homo sapiens, UniProt O60733); assay: hPNPLA9 off-target inhibition; assay type: biochemical; conditions: read-out: hPNPLA9 off-target inhibition [% inhibition at 100 μM]
T2 construct: made in house; host or cells: Expi cells (lysate)
T2 sequence (O60733 1-806): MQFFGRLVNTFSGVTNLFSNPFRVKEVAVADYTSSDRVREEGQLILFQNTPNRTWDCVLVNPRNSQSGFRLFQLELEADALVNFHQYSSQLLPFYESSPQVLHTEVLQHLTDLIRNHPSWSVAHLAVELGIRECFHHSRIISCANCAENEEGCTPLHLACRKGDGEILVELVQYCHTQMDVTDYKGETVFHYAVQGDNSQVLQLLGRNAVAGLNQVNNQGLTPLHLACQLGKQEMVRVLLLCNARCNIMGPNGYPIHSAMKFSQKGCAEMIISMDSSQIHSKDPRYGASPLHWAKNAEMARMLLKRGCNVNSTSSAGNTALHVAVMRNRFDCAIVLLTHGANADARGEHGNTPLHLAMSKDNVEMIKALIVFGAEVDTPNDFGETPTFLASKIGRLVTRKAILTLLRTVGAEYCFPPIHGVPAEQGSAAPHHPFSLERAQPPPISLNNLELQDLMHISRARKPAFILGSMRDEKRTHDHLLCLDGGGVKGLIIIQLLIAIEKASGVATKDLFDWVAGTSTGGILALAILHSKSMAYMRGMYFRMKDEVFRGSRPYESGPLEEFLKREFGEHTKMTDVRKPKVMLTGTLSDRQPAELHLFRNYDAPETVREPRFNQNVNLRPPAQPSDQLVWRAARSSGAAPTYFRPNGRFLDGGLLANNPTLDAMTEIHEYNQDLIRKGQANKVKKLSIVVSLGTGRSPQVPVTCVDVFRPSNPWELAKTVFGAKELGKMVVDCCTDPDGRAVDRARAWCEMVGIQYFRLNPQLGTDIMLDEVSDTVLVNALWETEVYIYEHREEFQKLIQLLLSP
Experimental: Expi lysates expressing hPNPLA9 were treated with 100 μM Inhibitors and incubated with 1 mM C8 monoacylglycerol substrate (containing 5 mM CHAPS, 50 mM NaPh buffer ph7.4, 0.15 M NaCl) for 40 min. Glycerol release was determined via Free glycerol reagent (Sigma Aldrich). Samples measured in triplicates, […]

[1] = Example 237, read-out: Inhibition of human ATGL − IC50
[2] = Example 238, read-out: Inhibition of human ATGL IC50

**Q.** For `CCOc1ccc(-c2cc(OC)cc(C(=O)OC(C)C)n2)cc1` [Example 35], which IC50 (human ATGL; [1]) is on record?
**A.** Its IC50 is 1 µM.

**Q.** What about the inhibition at 100 µM (hPNPLA9) of the same compound?
**A.** The inhibition at 100 µM was 0%.

**Q.** `CCOc1ccc(-c2nc(C(=O)OCc3ccoc3)cs2)cc1` [Example 216, Furan-3-ylmethyl 2-(4-ethoxyphenyl)thiazole-4-carboxylate] was tested. Which IC50 (human ATGL; [2]) did it give?
**A.** The IC50 was less than 3 µM.

**Q.** What about the inhibition at 100 µM (hPNPLA9) of the same compound?
**A.** Its inhibition at 100 µM is 0%.

**Q.** Which results are given for `C#C[C@@H](C)OC(=O)c1csc(-c2ccc(OCC)cc2)n1` [Example 211, (R)-But-3-yn-2-yl 2-(4-ethoxyphenyl)thiazole-4-carboxylate]?
**A.** IC50 (human ATGL; [2]): < 3 µM; inhibition at 100 µM (hPNPLA9): 0%

**Q.** How did the IC50 (human ATGL; [2]) turn out when `CCOc1ccc(-c2cccc(C(=O)OCc3cccs3)n2)cc1` [Example 189, Thiophen-2-ylmethyl 6-(4-ethoxyphenyl)picolinate] was run?
**A.** Its IC50 is 25 µM.

**Q.** What about the inhibition at 100 µM (hPNPLA9) of the same compound?
**A.** Its inhibition at 100 µM is 0%.

**Q.** For `CCOc1ccc(-c2cccc(C(=O)OCc3ccco3)n2)cc1` [Example 190, Furan-2-ylmethyl 6-(4-ethoxyphenyl)picolinate], which IC50 (human ATGL; [2]) is on record?
**A.** Its IC50 is 15 µM.

**Q.** What about the inhibition at 100 µM (hPNPLA9) of the same compound?
**A.** Its inhibition at 100 µM is 0%.

**Q.** `CCCCOC(=O)c1csc(-c2ccc(OCC)cc2)n1` [Example 212, Butyl 2-(4-ethoxyphenyl)thiazole-4-carboxylate] was tested. Which IC50 (human ATGL; [2]) did it give?
**A.** Its IC50 is 7 µM.

**Q.** What about the inhibition at 100 µM (hPNPLA9) of the same compound?
**A.** The inhibition at 100 µM was 0%.

**Q.** What does the source list for `CCOc1ccc(-c2nc(C(=O)OCc3ccsc3)cs2)cc1` [Example 215, Thiophen-3-ylmethyl 2-(4-ethoxyphenyl)thiazole-4-carboxylate]?
**A.** IC50 (human ATGL; [2]): < 3 µM; inhibition at 100 µM (hPNPLA9): 0%

**Q.** `CCOc1ccc(-c2nc(C(=O)OCc3ccc(Cl)s3)cs2)cc1` [Example 223, (5-Chlorothiophen-2-yl)methyl 2-(4-ethoxyphenyl)thiazole-4-carboxylate] was tested. Which IC50 (human ATGL; [2]) did it give?
**A.** Its IC50 is 12 µM.

**Q.** And the inhibition at 100 µM (hPNPLA9)?
**A.** The inhibition at 100 µM was 0%.

**Q.** `CC#CCOC(=O)c1csc(-c2ccc(OCC)cc2)n1` [Example 209, But-2-yn-1-yl 2-(4-ethoxyphenyl)thiazole-4-carboxylate] was tested. Which IC50 (human ATGL; [2]) did it give?
**A.** Its IC50 is 10 µM.

**Q.** And the inhibition at 100 µM (hPNPLA9)?
**A.** Its inhibition at 100 µM is 0%.

**Q.** For `CCOc1ccc(-c2nc(C(=O)OCc3ccc(Br)s3)cs2)cc1` [Example 224, (5-Bromothiophen-2-yl)methyl 2-(4-ethoxyphenyl)thiazole-4-carboxylate], which IC50 (human ATGL; [2]) is on record?
**A.** Its IC50 is 12 µM.

**Q.** And the inhibition at 100 µM (hPNPLA9)?
**A.** The inhibition at 100 µM was 0%.

**Q.** Which IC50 (human ATGL; [2]) does the source give for `C#C[C@H](C)OC(=O)c1csc(-c2ccc(OCC)cc2)n1` [Example 210, (S)-But-3-yn-2-yl 2-(4-ethoxyphenyl)thiazole-4-carboxylate] here?
**A.** The IC50 was less than 3 µM.

**Q.** What about the inhibition at 100 µM (hPNPLA9) of the same compound?
**A.** Its inhibition at 100 µM is 0%.

**Q.** How did the IC50 (human ATGL; [2]) turn out when `COc1cc(C(=O)OC(C)C)nc(-c2ccc(OC(C)C)cc2)c1` [Example 201, Isopropyl 6-(4-isopropoxyphenyl)-4-methoxypicolinate] was run?
**A.** The IC50 was less than 3 µM.

**Q.** And the inhibition at 100 µM (hPNPLA9)?
**A.** The inhibition at 100 µM was 0%.

**Q.** For `CCOc1ccc(-c2nc(C(=O)OCc3cccs3)cs2)cc1` [Example 152, Thiophen-2-ylmethyl 2-(4-ethoxyphenyl)thiazole-4-carboxylate], which IC50 (human ATGL; [1]) is on record?
**A.** The IC50 was 10 µM.

**Q.** What about the inhibition at 100 µM (hPNPLA9) of the same compound?
**A.** Its inhibition at 100 µM is 0%.
